Assay results from patent US20080318911A1, “20-Cyclopropyl, 26,27-Alkyl/Haloalkyl Vitamin D3 Compounds and Methods of Use Thereof” (BIOXELL S.P.A., priority 2004, published 2008).

Key:
[1] = test system: IFN-γ production by allogeneic PBMC; assay: IFN-γ production in the mixed leukocyte response (MLR); type: cell-based; conditions: 120 h; MLR of allogeneic PBMC, 5 days, ELISA; read-out: INF-γ IC50
Description: Immature dendritic cells (DC) were prepared as described in Romani, N. et al. (Romani, N. et al. (1996) J. Immunol. Meth. 196:137). IFN-γ production by allogeneic T cell activation in the mixed leukocyte response (MLR) was determined as described in Penna, G., et al., J Immunol., 164: 2405-2411 (2000).
Briefly, peripheral blood mononuclear cells (PBMC) were separated from buffy coats by Ficoll gradient and the same number (3×10^5) of allogeneic PBMC from 2 different donors were co-cultured in 96-well flat-bottom plates. The vitamin D3 compounds were added to each of the cultures.

RT112 = assay: Proliferation assay using bladder cancer cell lines: RT112; type: cell-based, human; conditions: Homo sapiens, RT-112; 72 h culture, CyQuant proliferation assay
Description: (§1) Bladder cancer cell lines (T24, RT112, HT1376 and RT4 are human bladder cancer cell lines; NHEK are normal human keratinocytes) were obtained from the European Collection of Cell Cultures (Salisbury, UK). Cells were plated at 3×10^3 per well, in flat bottomed 96-well plates in 100 μl of DMEM medium containing: 5% Fetal Clone 1,50 μg/l gentamicin, 1 mM sodium pyruvate and 1% non-essential amino acids. After culturing for 24 h at 37° C. in 5% CO2, to allow cells to adhere to the plates, VDR ligands (compounds (1)-(14)) were added at concentrations ranging from 100 μM to 0.3 μM in 100 μl of above-mentioned complete medium. After a further 72 h of culture, cell proliferation was measured using a fluorescence-based proliferation assay kit. (CyQuant Cell Proliferation Assay Kit, Molecular Probes, Eugene, Oreg., USA). The IC50 was calculated from the regression curve of the titration data.

RT4 = assay: Proliferation assay using bladder cancer cell lines: RT4; type: cell-based, human; conditions: Homo sapiens, RT-4; 72 h culture, CyQuant proliferation assay
Description: as §1

[2] = test system: Renin mRNA in As4.1 cells; assay: Renin mRNA inhibition in murine juxtaglomerular cell line As4.1; type: cell-based; conditions: Mus musculus, 24 h, real time PCR normalized versus β-actin, read-out: Renin mRNA inh.As4.1/wt
Description: As4.1 cells (80% subconfluent) were treated in complete medium with compounds of the invention at 10^−8, 10^−9 and 10^−10 M for 24 h. Total RNA was extracted using RNeasy Mini kit (Qiagen); treated with DNase I (Qiagen) and Reverse Transcription Reagent (Applied Biosystems) with Random Examers were used for reverse transcription according to the manufacturers' instructions. Real Time PCR analysis was performed in multiplex using commercially available β-actin VIC-conjugated probe (cat. n. 4352341E, Applied Biosystems) and custom designed mRENIN FAM-conjugated probe (Assay by Design, Applied Biosystems; Forward: […]; Reverse: […]; Probe: FAM-[…]-MGB). Reactions were performed in a 25 μL volume containing 12,5 μl 2× Master Mix (Applied Biosystems), 10 ng/reaction/well cDNA, and 2,5 μM each gene-specific primer. An ABI PRISM 7700 analyzer (Applied Biosystems) was used at 50° C. for 2 minutes and 95° C. for 10 minutes, followed by 40 cycles at 95° C. for 15 seconds and 60° C. for 1 minute. Cycle threshold (Ct) values were exported onto Excel worksheets for analysis. Test cDNA results were normalized versus mouse β-actin housekeeping gene. Fold differences in gene expression between the subtracted versus the unsubtracted populations were expressed using the method of 2^−ΔΔCt. (Table 6)

[3] = Determination of Maximum Tolerated Dose (MTD) in mice; conditions: mouse, in vivo, po; female C57BL/6 mice, p.o. daily for four days; highest dose without hypercalcemia (serum calcium >10.7 mg/dl)
NHEK = assay: Proliferation assay: NHEK normal human keratinocytes; type: cell-based; conditions: 72 h culture, CyQuant proliferation assay
Description: as §1

[4] = test system: human stromal bladder cells; assay: Basal growth of human stromal bladder cells; type: cell-based; conditions: FIG. 2
From the text: The Inventors confirmed the presence of vitamin D receptors (VDRs), as previously reported in the literature, on these cells (see below in FIG. 1).
The maximum tolerated dose (MTD) in rats is also listed for each compound (Table 5).

SMILES | IC50 [1] [nM] | IC50 (RT112) [nM] | IC50 (RT4) [nM] | IC50 [2] [nM] | MTD at 4 days [3] [µg/kg] | IC50 (NHEK) [nM] | inhibiting the basal growth of bladder cells [4]
C=C1/C(=C\C=C2/CCC[C@]3(C)C(C4(CC#CC(C)(C)O)CC4)=CCC23)CC(O)C[C@@H]1O (stereo partly drawn) [Compound 1, 1α,25-Dihydroxy-16-ene-20-cyclopropyl-23,24-yne-cholecalciferol] | 0.0336 | > 30000 | 10600 | 9.42 | 10 |  | 
C=C1/C(=C\C=C2/CCC[C@]3(C)C(C4(C/C=C/C(O)(C(F)(F)F)C(F)(F)F)CC4)=CCC23)CC(O)C[C@@H]1F (stereo partly drawn) [Compound 13, 1α-Fluoro-25-hydroxy-16,23E-diene-20-cyclopropyl-26,27-hexafluoro-cholecalciferol] | 0.065 | 17000 | 3600 | 9.5 | 3 | 5100 | 
CC(C)(O)C#CCC1(C2=CCC3/C(=C/C=C4/CC(O)C[C@H](O)C4)CCC[C@]23C)CC1 (stereo partly drawn) [Compound 2, 1α,25-Dihydroxy-16-ene-20-cyclopropyl-23,24-yne-19-nor-cholecalciferol] | 0.0254 | > 30000 | 6300 | 97.2 | 10 |  | 
C=C1/C(=C\C=C2/CCC[C@]3(C)C(C4(CC#CC(O)(C(F)(F)F)C(F)(F)F)CC4)=CCC23)CC(O)C[C@@H]1O (stereo partly drawn) [Compound 4, 1α,25-Dihydroxy-16-ene-20-cyclopropyl-23,24-yne-26,27 hexafluoro-cholecalciferol] | 0.045 | 13800 | 1700 | 2.99 | 0.3 | 2000 | effective
C=C1/C(=C\C=C2/CCC[C@]3(C)C(C4(CC#CC(C)(C)O)CC4)=CCC23)CC(O)C[C@@H]1F (stereo partly drawn) [Compound 11, 1α-Fluoro-25-hydroxy-16-ene-23-yne-20-cyclopropyl-cholecalciferol] | 0.0164 | > 30000 | 16700 | 303 | 100 |  | 
C=C1/C(=C\C=C2/CCC[C@]3(C)C(C4(CCCC(C)(C)O)CC4)=CCC23)CC(O)C[C@@H]1O (stereo partly drawn) [Compound 10, 1α,25-Dihydroxy-16-ene-20-cyclopropyl-cholecalciferol] |  | 27600 | 2000 | 26.2 | 1 | 5200 | effective
C=C1/C(=C\C=C2/CCC[C@]3(C)C(C4(CC#CC(O)(C(F)(F)F)C(F)(F)F)CC4)=CCC23)CC(O)C[C@@H]1F (stereo partly drawn) [Compound 12, 1α-Fluoro-25-hydroxy-16-ene-20-cyclopropyl-23-yne-26,27-hexafluoro-cholecalciferol] | 0.585 | 16900 | 3600 | 9.73 | 0.3 | 1000 | 
C=C1/C(=C\C=C2/CCC[C@]3(C)C(C4(C/C=C\C(O)(C(F)(F)F)C(F)(F)F)CC4)=CCC23)CC(O)C[C@@H]1F (stereo partly drawn) [Compound 14, 1α-Fluoro-25-hydroxy-16,23Z-diene-20-cyclopropyl-26,27-hexafluoro-cholecalciferol] | 0.081 | 21000 | 3100 | 6 | 1 | 4000 | 
C[C@]12CCC/C(=C\C=C3\CC(O)C[C@H](O)C3)C1CC=C2C1(C/C=C/C(O)(C(F)(F)F)C(F)(F)F)CC1 (stereo partly drawn) [Compound 5, 1α,25-Dihydroxy-16-ene-20-cyclopropyl-23,24-E-ene-26,27-hexafluoro-19-nor-cholecalciferol] | 0.012 | 14500 | 4600 | 4.4 |  | 4900 | 
C=C1/C(=C\C=C2/CCC[C@]3(C)C(C4(C/C=C/C(O)(C(F)(F)F)C(F)(F)F)CC4)=CCC23)CC(O)C[C@@H]1O (stereo partly drawn) [Compound 6, 1α,25-Dihydroxy-16-ene-20-cyclopropyl-23,24-E-ene-26,27-hexafluoro-cholecalciferol] | 0.04 | 10600 | 2300 | 0.547 | 0.3 | 5800 | effective
